Results reported in PMC7013731, “Elucidating the Structural Basis of the Intracellular pH Sensing Mechanism of TASK-2 K2P Channels” (International Journal of Molecular Sciences, 2020).

Key:
[1] = target: T1, TASK-2 (Mus musculus, UniProt Q9JK62); experiment: whole-cell patch clamp, transfected HEK-293 cells; format: cell-based
T1 construct: gene Kcnk5; full-length TASK-2 plasmid transiently expressed in HEK-293 cells with separate GFP marker plasmid; homodimer
T1 sequence (Q9JK62 1-502): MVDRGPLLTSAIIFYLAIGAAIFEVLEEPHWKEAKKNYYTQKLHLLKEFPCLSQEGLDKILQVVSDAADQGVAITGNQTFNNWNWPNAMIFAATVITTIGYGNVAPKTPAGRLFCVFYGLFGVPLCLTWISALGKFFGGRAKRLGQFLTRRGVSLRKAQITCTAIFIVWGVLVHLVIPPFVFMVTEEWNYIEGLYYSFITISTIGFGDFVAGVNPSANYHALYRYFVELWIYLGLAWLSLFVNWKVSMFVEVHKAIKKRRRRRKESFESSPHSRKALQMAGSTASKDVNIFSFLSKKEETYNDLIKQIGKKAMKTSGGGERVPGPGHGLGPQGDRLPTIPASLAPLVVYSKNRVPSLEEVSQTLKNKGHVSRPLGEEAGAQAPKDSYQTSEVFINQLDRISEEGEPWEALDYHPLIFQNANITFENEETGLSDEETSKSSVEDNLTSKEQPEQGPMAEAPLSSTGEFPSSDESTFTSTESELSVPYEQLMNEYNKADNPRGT

[2] = target: Lys245 (UniProt position 245, LFVNWKVSMFV); experiment: electrophysiology; details: wild-type channel, gating by intracellular pH (pHi); cited from earlier work

## NCCC(Oc1ccc(C(F)(F)F)cc1)c1ccccc1 (racemic) [norfluoxetine]
[1]
  IC50: 17 ± 5 µM

## TASK-2 (K2P5.1, TWIK-related acid-sensitive K+ channel 2) (Mus musculus (inferred from GenBank AF319542; species not stated in the article))
[2]
  pKa: ~8.0
